Columns and labels:
[1] = test system: new onset T1DM NOD mice; assay: Restoration of euglycemia in new onset diabetic NOD mice; format: in vivo, mouse; conditions: NOD-sp hosts; treatment 28 days
Description: We tested the efficacy of a 14- or 28-day course of Power Mix (RPM+IL-2/Fc+mIL-15/Fc) in new onset (>10 days) T1DM NOD mice whose repeated blood glucose levels ranged from 300 to 450 mg/dl. All non-treated diabetic NOD mice remained hyperglycemic without spontaneous remissions (Table 1, group A) and most died within 7 weeks despite insulin treatment (data not shown). In contrast, euglycemia was achieved within 5-7 weeks and maintained throughout a follow up period of over 300 days in 55 of 60 diabetic NOD mice treated with the RPM+IL-2/Fc+mIL-15/Fc regimen (Table 1 groups B and C). By comparison, remissions were less frequent (Table 1, Groups D-F) and delayed if elements of the treatment mix were eliminated.
To determine whether the presence of the T cell regulatory-enriched CD25+ T cell population is crucial to the beneficial therapeutic effects of Power Mix, prior to administration, we treated new onset diabetic NOD mice with an anti-CD25 mAb regimen known to delete CD4+CD25+ T cells (Zheng et al., Adv. Exp. Med. Biol., 520:87-95, 2003; Sanchez-Fueyo et al., Nat. Immunol., 4:1093-1101, 2003). Seven days after the initiation of anti-CD25 mAb treatment, these CD25+ T cell depleted mice received regimen treatment for 28 days (Table 1, Group G). […]
Blood glucose levels of NOD mice were monitored twice weekly with the Accu-Check blood glucose monitor system (Roche, Indianapolis, Ind.). […]

[2] = subcutaneous injection of 25 mg twice a week; cited from earlier work

| Compound | Restored to Normoglycemia (#/total treated) [1] | Time to peak blood levels (average) [2] [h] |
| --- | --- | --- |
| CO[C@H]1C[C@@H]2CC[C@@H](C)[C@@](O)(O2)C(=O)C(=O)N2CCCC[C@H]2C(=O)O[C@H]([C@H](C)C[C@@H]2CC[C@@H](O)[C@H](OC)C2)CC(=O)[C@H](C)/C=C(\C)[C@@H](O)[C@@H](OC)C(=O)[C@H](C)C[C@H](C)/C=C/C=C/C=C/1C [RPM, rapamycin] | 5/19 |  |
| Etanercept |  | 72 |

Reference: patent publication US20110020269A1, “METHODS AND COMPOSITIONS FOR MODIFYING T CELL IMMUNE RESPONSES AND INFLAMMATION” (Beth Israel Deaconess Medical Center, Inc., priority 2007, published 2011)
